“And” between values parts separate entries of the source, which are not always exact repeats. Identical values can stand only once.
Each molecule was assayed on wild-type HIV-1 strain IIIB (assay: microbe, parasite or virus in culture). Conditions: Human immunodeficiency virus 1, IIIB, MT2.
Format: cell-based

| SMILES | EC50 [µM] |
| --- | --- |
| CCOP(=O)(COc1ccc(S(=O)(=O)N(CC(C)C)CC(O)C(Cc2ccc(N)cc2)NC(=O)OC2COC3OCCC23)cc1)OCC (stereo not drawn) [NH2, OEt] | 0.05 to 0.5 |

Same assay, conditions: read-out: EC50

| SMILES | EC50 |
| --- | --- |
| CCOC(=O)C(C)OP(=O)(COc1ccc(CC(NC(=O)OC2COC3OCCC23)C(O)CN(CC(C)C)S(=O)(=O)c2ccc(OC)cc2)cc1)Oc1ccccc1OCC [drawing 660 R1=OPh-o-OEt R2=(S)Lac-Et] | < 0.05 µM |
| CCOC(=O)C(CC)OP(=O)(COc1ccc(CC(NC(=O)OC2COC3OCCC23)C(O)CN(CC(C)C)S(=O)(=O)c2ccc(OC)cc2)cc1)Oc1ccccc1 [drawing 659 R1=OPh R2=(S)Hba-Et] | < 0.05 µM |
| CCCCCCCCc1ccc(OP(=O)(COc2ccc(C[C@H](NC(=O)O[C@H]3CO[C@H]4OCC[C@H]43)[C@H](O)CN(CC(C)C)S(=O)(=O)c3ccc(OC)cc3)cc2)O[C@@H](C)C(=O)OCC)cc1 (stereo partly drawn) [drawing 660 R1=OPh—p-n-Oct R2=(S)Lac-Et] | 0.05 to 0.5 µM |
| CCOC(=O)C(C)OP(=O)(CCNc1ccc(CC(NC(=O)OC2COC3OCCC23)C(O)CN(CC(C)C)S(=O)(=O)c2ccc(OC)cc2)cc1)Oc1ccccc1 (single isomer, unassigned) [drawing 706] | < 0.05 µM |
| CCOC(=O)C(C)OP(=O)(CN1CC=C(CC(NC(=O)OC2COC3OCCC23)C(O)CN(CC(C)C)S(=O)(=O)c2ccc(OC)cc2)CC1)Oc1ccccc1 (stereo not drawn) | > 5 µM |
| CC(C)CN(C[C@@H](O)[C@H](Cc1ccc(OCP(=O)(O)O)cc1)NC(=O)O[C@H]1CO[C@H]2OCC[C@H]21)S(=O)(=O)c1ccc(O)cc1 [drawing 652 R1=OH R2=OH] | 0.5 to 5 µM |
| CCOC(=O)[C@H](C)OP(=O)(COc1ccc(C[C@H](NC(=O)O[C@H]2CO[C@H]3OCC[C@H]32)[C@H](O)CN(CC(C)C)S(=O)(=O)c2ccc(OC)cc2)cc1)Oc1cccc(CN2CCCCC2)c1 (stereo partly drawn) [drawing 660 R1=OPh-m-CH2Pip R2=(S)Lac-Et] | 0.05 to 0.5 µM |
| CCOC(=O)C(CC)NP(=O)(COc1ccc(C[C@H](NC(=O)O[C@H]2CO[C@H]3OCC[C@H]32)[C@H](O)CN(CC(C)C)S(=O)(=O)c2ccc(OC)cc2)cc1)Oc1ccccc1 (single isomer, unassigned) [drawing 657 R1=OPh R2=Aba-Et] | < 0.05 µM and 0.05 to 0.5 µM |
| CCOP(=O)(COc1ccc(C[C@H](NC(=O)O[C@H]2CO[C@H]3OCC[C@H]32)[C@H](O)CN(CC(C)C)S(=O)(=O)c2ccc(O)cc2)cc1)OCC [drawing 652 R1=Et R2=Et] | < 0.05 µM |
| CCOC(=O)C(C)OP(=O)(COc1ccc(C[C@H](NC(=O)O[C@H]2CO[C@H]3OCC[C@H]32)[C@H](O)CN(CC(C)C)S(=O)(=O)c2ccc(OCc3ccccc3)cc2)cc1)Oc1ccccc1 (stereo partly drawn) | 0.05 to 0.5 µM |
| CCOC(=O)C(Cc1ccccc1)NP(=O)(COc1ccc(CC(NC(=O)OC2COC3OCCC23)C(O)CN(CC(C)C)S(=O)(=O)c2ccc(OC)cc2)cc1)NC(Cc1ccccc1)C(=O)OCC (stereo not drawn) [drawing 655 R1=Phe-Et R2=Phe-Et] | < 0.05 µM |
| CCCCOC(=O)C(Cc1ccccc1)NP(=O)(COc1ccc(CC(NC(=O)OC2COC3OCCC23)C(O)CN(CC(C)C)S(=O)(=O)c2ccc(OC)cc2)cc1)NC(Cc1ccccc1)C(=O)OCCCC (stereo not drawn) [drawing 655 R1=Phe-Bu R2=Phe-Bu] | < 0.05 µM |
| COC(=O)C(C)OP(=O)(COc1ccc(C[C@H](NC(=O)O[C@H]2CO[C@H]3OCC[C@H]32)[C@H](O)CN(CC(C)C)S(=O)(=O)c2ccc(OC)cc2)cc1)Oc1ccccc1 (stereo partly drawn) [drawing 658 R1=OPh R2=Lac-Me] | 0.05 to 0.5 µM |
| COc1ccc(S(=O)(=O)N(CC(C)C)C[C@@H](O)[C@H](Cc2ccc(OCP(=O)(O)NC(C)C(=O)O)cc2)NC(=O)O[C@H]2CO[C@H]3OCC[C@H]32)cc1 (stereo partly drawn) [drawing 657 R1=OH R2=Ala-OH] | > 5 µM |
| CCOC(=O)C(CC)OP(=O)(COc1ccc(CC(NC(=O)OC2COC3OCCC23)C(O)CN(CC(C)C)S(=O)(=O)c2ccc(OC)cc2)cc1)Oc1ccccc1 (mixture of isomers) [drawing 659 R1=OPh R2=mix-Hba-Et] | < 0.05 µM |
| CCOC(=O)C(CC)NP(=O)(COc1ccc(C[C@H](NC(=O)O[C@H]2CO[C@H]3OCC[C@H]32)[C@H](O)CN(CC(C)C)S(=O)(=O)c2ccc(OC)cc2)cc1)NC(CC)C(=O)OCC (stereo partly drawn) [drawing 655 R1=Aba-Et R2=Aba-Et] | < 0.05 µM |
| CCOC(=O)C(C)OP(=O)(CCNc1ccc(CC(NC(=O)OC2COC3OCCC23)C(O)CN(CC(C)C)S(=O)(=O)c2ccc(OC)cc2)cc1)Oc1ccccc1 (single isomer, unassigned) [drawing 707] | < 0.05 µM |
| CCOC(=O)C(C)OP(=O)(COc1ccc(CC(NC(=O)OC2COC3OCCC23)C(O)CN(CC(C)C)S(=O)(=O)c2ccc(OC)cc2)cc1)OCC(F)(F)F (stereo not drawn) [drawing 658 R1=OCH2CF3 R2=Lac-Et] | 0.05 to 0.5 µM |
| CCOC(=O)C(C)OP(=O)(COc1ccc(CC(NC(=O)OC2COC3OCCC23)C(O)CN(CC(C)C)S(=O)(=O)c2ccc(CN3CCOCC3)cc2)cc1)Oc1ccccc1 (stereo not drawn) | 0.05 to 0.5 µM |
| CC(C)CN(C[C@@H](O)[C@H](Cc1ccc(OCP(=O)(OCc2ccccc2)OCc2ccccc2)cc1)NC(=O)O[C@H]1CO[C@H]2OCC[C@H]21)S(=O)(=O)c1ccc(C(F)(F)F)cc1 | < 0.05 µM |
| COc1ccc(S(=O)(=O)N(CC(C)C)C[C@@H](O)[C@H](Cc2ccc(OCP(=O)(Oc3ccccc3)OC(C)C(=O)OCCN3CCOCC3)cc2)NC(=O)O[C@H]2CO[C@H]3OCC[C@H]32)cc1 (stereo partly drawn) [drawing 658 R1=OPh R2=Lac-EtMor] | > 5 µM |
| CCOP(=O)(O)COc1ccc(CC(NC(=O)OC2COC3OCCC23)C(O)CN(CC(C)C)S(=O)(=O)c2ccc(OC)cc2)cc1 (stereo not drawn) [drawing 651 R1=OH R2=OEt] | 0.05 to 0.5 µM |

| SMILES | EC50 |
| --- | --- |
| CCCCOC(=O)C(CC)NP(=O)(COc1ccc(CC(NC(=O)OC2COC3OCCC23)C(O)CN(CC(C)C)S(=O)(=O)c2ccc(OC)cc2)cc1)Oc1ccccc1 (single isomer, unassigned) [drawing 657 R1=OPh R2=Aba-Bu] | < 0.05 µM and 0.05 to 0.5 µM |
| CCOC(=O)[C@H](C)OP(=O)(COc1ccc(C[C@H](NC(=O)O[C@H]2CO[C@H]3OCC[C@H]32)[C@H](O)CN(CC(C)C)S(=O)(=O)c2ccc(OC)cc2)cc1)ON1CCOCC1 (stereo partly drawn) [drawing 660 R1=OMor R2=(S)Lac-Et] | > 5 µM |
| CCOC(=O)C(C)OP(=O)(Cc1ccc(N(C)CC(NC(=O)OC2COC3OCCC23)C(O)CN(CC(C)C)S(=O)(=O)c2ccc(OC)cc2)cc1)Oc1ccccc1 (stereo not drawn) | < 0.05 µM |
| CCOC(=O)C(C)OP(=O)(COc1ccc(CC(NC(=O)OC2COC3OCCC23)C(O)CN(CC(C)C)S(=O)(=O)c2ccc(OC)cc2)cc1)Oc1ccccc1 (stereo not drawn) [drawing 661 R1=OPh R2=Lac-Et] | 0.05 to 0.5 µM |
| CC(C)CN(C[C@@H](O)[C@H](Cc1ccc(OCP(=O)(OCc2ccccc2)OC(C)C(=O)OCc2ccccc2)cc1)NC(=O)O[C@H]1CO[C@H]2OCC[C@H]21)S(=O)(=O)c1ccccc1 (stereo partly drawn) | 0.05 to 0.5 µM |
| CC(C)CN(CC(O)C(Cc1ccc(OCP(=O)(OCc2ccccc2)OCc2ccccc2)cc1)NC(=O)OC1COC2OCCC12)S(=O)(=O)c1ccc(C=O)cc1 (stereo not drawn) | < 0.05 µM |
| CCOC(=O)C(C)OP(=O)(Cc1ccc(NCC(NC(=O)OC2COC3OCCC23)C(O)CN(CC(C)C)S(=O)(=O)c2ccc(OC)cc2)cc1)Oc1ccccc1 (stereo not drawn) | < 0.05 µM |
| CCOC(=O)[C@H](C)OP(=O)(COc1ccc(C[C@H](NC(=O)O[C@H]2CO[C@H]3OCC[C@H]32)[C@H](O)CN(CC(C)C)S(=O)(=O)c2ccc(OC)cc2)cc1)Oc1cccc(CN2CCOCC2)c1 (stereo partly drawn) [drawing 660 R1=OPh-m-CH2Mor R2=(S)Lac-Et] | 0.05 to 0.5 µM |
| CCOC(=O)C(CC)OP(=O)(COc1ccc(CC(NC(=O)OC2COC3OCCC23)C(O)CN(CC(C)C)S(=O)(=O)c2ccc(OC)cc2)cc1)Oc1ccccc1 [drawing 659 R1=OPh R2=(R)Hba-Et] | < 0.05 µM |
| CCOC(=O)C(C)OP(=O)(COc1ccc(CC(NC(=O)OC2COC3OCCC23)C(O)CN(CC(C)C)S(=O)(=O)c2ccc(OC)cc2)cc1)OCC (stereo not drawn) [drawing 658 R1=OEt R2=Lac-Et] | 0.05 to 0.5 µM |
| CCOC(=O)[C@H](C)OP(=O)(COc1ccc(C[C@H](NC(=O)O[C@H]2CO[C@H]3OCC[C@H]32)[C@H](O)CN(CC(C)C)S(=O)(=O)c2ccc(OC)cc2)cc1)ON(C)C (stereo partly drawn) [drawing 660 R1=ONMe2 R2=(S)Lac-Et] | 0.05 to 0.5 µM |
| CCOC(=O)C(C)OP(=O)(COc1ccc(CC(NC(=O)OC2COC3OCCC23)C(O)CN(CC(C)C)S(=O)(=O)c2ccc(CO)cc2)cc1)Oc1ccccc1 (stereo not drawn) | < 0.05 µM |
| CCCCOC(=O)C(C)NP(=O)(O)COc1ccc(C[C@H](NC(=O)O[C@H]2CO[C@H]3OCC[C@H]32)[C@H](O)CN(CC(C)C)S(=O)(=O)c2ccc(OC)cc2)cc1 (stereo partly drawn) [drawing 657 R1=OH R2=Ala-Bu] | > 5 µM |
| CCOC(=O)C(C)OP(=O)(COc1ccc(CC(NC(=O)OC2COC3OCCC23)C(O)CN(CC(C)C)S(=O)(=O)c2ccc(OC)cc2)cc1)Oc1ccccc1CC(C)C [drawing 660 R1=OPh—o-i-But R2=(S)Lac-Et] | < 0.05 µM |
| CC(C)CN(C[C@@H](O)[C@H](Cc1ccc(OCP(=O)(OCc2ccccc2)OC(C)C(=O)OCc2ccccc2)cc1)NC(=O)O[C@H]1CO[C@H]2OCC[C@H]21)S(=O)(=O)c1ccc(OCc2ccccc2)cc1 (stereo partly drawn) | > 5 µM |
| CCOP(=O)(COc1ccc(C[C@H](NC(=O)O[C@H]2CO[C@H]3OCC[C@H]32)[C@H](O)CN(CC(C)C)S(=O)(=O)c2ccc([N+](=O)[O-])cc2)cc1)OCC | < 0.05 µM |
| COc1ccc(S(=O)(=O)N(CCN(C)C)CC(O)C(Cc2ccc(O)cc2)NC(=O)OC2COC3OCCC23)cc1 (stereo not drawn) | 0.05 to 0.5 µM |
| CCOC(=O)C(C)OP(=O)(CCN1CC=C(CC(NC(=O)OC2COC3OCCC23)C(O)CN(CC(C)C)S(=O)(=O)c2ccc(OC)cc2)CC1)Oc1ccccc1 (stereo not drawn) | > 5 µM |
| COc1ccc(S(=O)(=O)N(CC(C)C)C[C@@H](O)[C@H](Cc2ccc(OCP(=O)(Oc3ccccc3)Oc3ccccc3)cc2)NC(=O)O[C@H]2CO[C@H]3OCC[C@H]32)cc1 [drawing 651 R1=OPh R2=OPh] | < 0.05 µM |
| COc1ccc(S(=O)(=O)N(CC(C)C)C[C@@H](O)[C@H](Cc2ccc(OCP(=O)(Oc3ccccc3)O[C@@H](C)C(=O)OCCCN3CCOCC3)cc2)NC(=O)O[C@H]2CO[C@H]3OCC[C@H]32)cc1 (stereo partly drawn) [drawing 659 R1=OPh R2=(S)Lac-PrMor] | > 5 µM |
| CCOC(=O)[C@H](C)OP(=O)(COc1ccc(C[C@H](NC(=O)O[C@H]2CO[C@H]3OCC[C@H]32)[C@@H](CN(CC(C)C)S(=O)(=O)c2ccc(OC)cc2)OC(=O)[C@H](N)C(C)C)cc1)Oc1ccccc1 (stereo partly drawn) | 0.05 to 0.5 µM |
| COc1ccc(S(=O)(=O)N(CC(C)C)C[C@@H](OP(=O)(O)O)[C@H](Cc2ccc(OCP(=O)(Oc3ccccc3)O[C@@H](C)C(=O)OC(C)C)cc2)NC(=O)O[C@H]2CO[C@H]3OCC[C@H]32)cc1 (stereo partly drawn) | < 0.05 µM |

Reference: patent US20060115815A1 (priority 2002, published 2006)
